Literature values in patent US20240124437A1, “INJECTABLE LURASIDONE SUSPENSION AND PREPARATION METHOD THEREFOR” (Sichuan Kelun Pharmaceutical Research Institute Co., Ltd., priority 2021, published 2024).

Conditions: oral tablets

oral bioavailability: 9%-19%
SMILES: O=C1[C@@H]2[C@H]3CC[C@H](C3)[C@@H]2C(=O)N1C[C@@H]1CCCC[C@H]1CN1CCN(c2nsc3ccccc23)CC1 [lurasidone]
